*1 amine or outer side, *2 acyl side, *3 side chain or, on linkers, in order; H or OH if unused. Where a SMILES comes first, the peptide text is derived from it. [ ]: non-standard residue; d: D form. dTrp(2-Me) = Cc1[nH]c2ccccc2c1C[C@@H](N)C(=O)O; Phe(3-Br) = N[C@@H](Cc1cccc(Br)c1)C(=O)O; Aad = N[C@@H](CCCC(=O)O)C(=O)O; Suc = O=C(CCC(=O)[*:2])[*:1]; Nle = CCCC[C@H](N)C(=O)O
Legend:
[1] = target: T1, CCK-B receptors (CHO-CCK) (Homo sapiens, UniProt P32239); assay: Calcium flux (Fluo-8) agonist test on CHO-CCK model cells; format: cell-based; details: for EC50: CHO-CCK cells; for Agonistic Activity (%) at 10 μM: compound at 10 μM, percentage of signal of 20 nM CCK8 alone
T1 construct: expressed in transfected cells; host or cells: CHO (CHO-CCK model cells)
T1 sequence (P32239 1-447): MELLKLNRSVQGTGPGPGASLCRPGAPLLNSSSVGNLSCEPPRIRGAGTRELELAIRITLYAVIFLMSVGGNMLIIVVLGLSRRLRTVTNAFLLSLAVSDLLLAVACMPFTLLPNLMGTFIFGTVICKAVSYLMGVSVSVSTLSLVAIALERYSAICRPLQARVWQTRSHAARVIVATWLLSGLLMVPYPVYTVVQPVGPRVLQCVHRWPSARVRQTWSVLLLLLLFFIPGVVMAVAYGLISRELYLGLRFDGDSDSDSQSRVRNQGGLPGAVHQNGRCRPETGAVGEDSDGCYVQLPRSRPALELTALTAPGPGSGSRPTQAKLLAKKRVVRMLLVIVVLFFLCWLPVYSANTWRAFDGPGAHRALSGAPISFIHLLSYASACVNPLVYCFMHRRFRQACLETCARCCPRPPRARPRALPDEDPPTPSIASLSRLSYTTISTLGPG
In short: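 Agonist-mode Fluo-8 calcium flux read on CHO-CCK cells after dye loading 30 min at 37 °C plus 30 min at room temperature.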

[2] = target: T1, CCK-B receptors (CHO-CCK); assay: Calcium flux (Fluo-8) antagonist test on CHO-CCK model cells in presence of CCK8; format: cell-based
Description: The compound was formulated to a 10 mM mother liquor with DMSO, and then diluted into a series of 9 concentrations with a 3-fold gradient to form a 1000× stock solution. […] Prepare 1×Fluo-8 analysis buffer: mix 9 mL of HHBS, 1 mL of 10× Pluronic F127 Plus and 20 μL of Fluo-8 thoroughly for later use. • 3. Add Fluo-8 dye working solution to the cell plate, 100 μL/well. First incubate in a 37° C. incubator for 30 min, and then take it out and incubate at room temperature in the dark for 30 min. • 4. In the process of incubating cells, the compounds to be detected were prepared with HHBS. • 5. […] The agonism/antagonism EC50 of the compound can be obtained by plotting the fitting curve with the agonism/antagonism percentage as Y-axis and the concentration of the compound as X-axis.

[3] = compound alone, 100% = 20 nM CCK8
[4] = compound together with 10 nM CCK8
[5] = Fluo-8 calcium flux, 100% control = 20 nM CCK8
[6] = in presence of 10 nM CCK8, bound in μM
[7] = compound together with 10 nM CCK8, bound in μM
[8] = Fluo-8 calcium flux, bound in μM

CC(=O)N[C@H](Cc1c[nH]c2ccccc12)C(=O)N[C@@H](CCC(N)=O)C(=O)N[C@@H](CC(=O)O)C(=O)N[C@@H](Cc1cccc(Br)c1)C(N)=O [HT-184, Ac-D-Trp-Glu-Asp-Phe(3-Br)-NH2]
EC50 [1, 3]: 4.32 µM
EC50 [2, 4]: 4.41 µM

CSCC[C@H](NC(=O)[C@H](Cc1ccccc1)NC(C)=O)C(=O)N[C@@H](CC(=O)O)C(=O)N[C@@H](Cc1cccc(Br)c1)C(N)=O [HT-223, Ac-Phe-Met-Asp-Phe(3-Br)-NH2] (Ac-FMD[Phe(3-Br)]-NH2)
EC50 [1, 5]: 0.225 µM
EC50 ([2]; in presence of 10 nM CCK8): 1.88 µM

CCCC[C@H](NC(=O)[C@H](Cc1c[nH]c2ccccc12)NC(C)=O)C(=O)N[C@@H](CC(=O)O)C(=O)N[C@@H](Cc1c(C)[nH]c2ccccc12)C(N)=O [HT-229, Ac-D-Trp-Nle-Asp-(2-Me-Trp)-NH2]
EC50 [1, 5]: 8.2 µM
EC50 [2, 6]: > 10 µM

CSCC[C@H](NC(=O)[C@H](N)Cc1c[nH]c2ccccc12)C(=O)N[C@@H](CC(=O)O)C(=O)N[C@@H](Cc1ccccc1[N+](=O)[O-])C(N)=O [HT-24, D-Trp-Met-Asp-Phe(2-NO2)-NH2]
EC50 [1, 3]: 0.206 µM
Agonistic Activity (%) at 10 μM [1]: 50.60%
EC50 [2, 4]: 0.624 µM

CS(=O)(=O)CC[C@H](NC(=O)[C@H](N)Cc1c[nH]c2ccccc12)C(=O)N[C@@H](CC(=O)O)C(=O)N[C@@H](Cc1cccc(F)c1)C(N)=O [HT-61, D-Trp-Met(O2)-Asp-Phe(3-F)-NH2]
Agonistic Activity (%) at 10 μM [1]: 36.66%
EC50 [2, 7]: > 10 µM

CCCC[C@H](NC(=O)[C@@H](Cc1cn(C)c2ccccc12)NC(C)=O)C(=O)N[C@@H](CC(=O)O)C(=O)N[C@@H](Cc1c(C)[nH]c2ccccc12)C(N)=O [HT-233, Ac-(1-Me-Trp)-Nle-Asp-(2-Me-Trp)-NH2]
EC50 [1, 8]: > 10 µM
EC50 ([2]; in presence of 10 nM CCK8): 3.65 µM

CSCC[C@H](NC(=O)[C@H](Cc1ccc(O)cc1)NC(=O)[C@H](CC(=O)O)NC(C)=O)C(=O)NCC(N)=O [HT-206, Ac-Asp-Tyr-Met-Gly-NH2] (Ac-DYMG-NH2)
EC50 [1, 8]: > 10 µM
EC50 [2, 6]: > 10 µM

CSCC[C@H](NC(=O)[C@H](N)Cc1c[nH]c2ccccc12)C(=O)N[C@@H](CC(=O)O)C(=O)N[C@@H](Cc1cccc(Cl)c1)C(N)=O [HT-26, D-Trp-Met-Asp-Phe(3-Cl)-NH2]
EC50 [1, 3]: 0.0784 µM
Agonistic Activity (%) at 10 μM [1]: 85.75%
EC50 [2, 4]: 0.635 µM

CCCC[C@H](NC(=O)[C@H](Cc1c[nH]c2ccccc12)NC(=O)CNC(=O)[C@H](CCCC)NC(C)=O)C(N)=O [HT-213, Ac-Nle-Gly-Trp-Nle-NH2] (Ac-[Nle]GW[Nle]-NH2)
EC50 [1, 5]: 0.533 µM
EC50 ([2]; in presence of 10 nM CCK8): 4.92 µM

CCCC[C@H](NC(=O)[C@@H](Cc1c[nH]c2ccccc12)NC(=O)CNC(=O)CCC(=O)O)C(=O)N[C@@H](CC(=O)O)C(=O)N[C@@H](Cc1cccc(Br)c1)C(N)=O [HT-202, (Suc)-Gly-D-Trp-Nle-Asp-Phe(3-Br)-NH2] (Suc-G[dW][Nle]D[Phe(3-Br)]-NH2)
EC50 [1, 5]: 0.0051 µM
EC50 ([2]; in presence of 10 nM CCK8): 0.192 µM

CCCC[C@H](NC(=O)[C@@H](Cc1c(C)[nH]c2ccccc12)NC(C)=O)C(=O)N[C@@H](CC(=O)O)C(=O)N[C@@H](Cc1c(C)[nH]c2ccccc12)C(N)=O [HT-235, Ac-(2-Me-Trp)-Nle-Asp-(2-Me-Trp)-NH2]
EC50 [1, 8]: > 10 µM
EC50 [2, 6]: > 10 µM

CSCC[C@H](NC(=O)[C@H](N)Cc1c[nH]c2ccccc12)C(=O)N[C@@H](CC(=O)O)C(=O)N[C@@H](Cc1cc(F)c(F)c(F)c1)C(N)=O [HT-40, D-Trp-Met-Asp-Phe(3,4,5-TriF)-NH2]
EC50 [1, 3]: 0.078 µM
Agonistic Activity (%) at 10 μM [1]: 98.25%
EC50 [2, 4]: 0.244 µM

CSCC[C@H](NC(=O)[C@H](Cc1cccc(Br)c1)NC(C)=O)C(=O)N[C@@H](CC(=O)O)C(=O)N[C@@H](Cc1cccc(Br)c1)C(N)=O [HT-224, Ac-Phe(3-Br)-Met-Asp-Phe(3-Br)-NH2] (Ac-[Phe(3-Br)]MD[Phe(3-Br)]-NH2)
EC50 [1, 5]: 0.0254 µM
EC50 ([2]; in presence of 10 nM CCK8): 0.0803 µM

CSCC[C@H](NC(=O)[C@@H](Cc1cc2ccccc2[nH]1)NC(=O)[C@@]1(O)C[C@@H](O)[C@H](NC(C)=O)C([C@@H](O)[C@@H](O)CO)O1)C(=O)N[C@@H](CC(=O)O)C(=O)N[C@@H](Cc1cccc(Br)c1)C(N)=O (stereo partly drawn) [HT-256, Sia-D-Trp-Met-Asp-Phe(3-Br)-NH2]
EC50 [1, 5]: 0.000672 µM
EC50 ([2]; in presence of 10 nM CCK8): 0.0419 µM

CS(=O)(=O)CC[C@H](NC(=O)[C@H](N)Cc1c[nH]c2ccccc12)C(=O)N[C@@H](CC(=O)O)C(=O)N[C@@H](Cc1ccccc1F)C(N)=O [HT-59, D-Trp-Met(O2)-Asp-Phe(2-F)-NH2]
Agonistic Activity (%) at 10 μM [1]: 39.73%
EC50 [2, 4]: 9.22 µM

CCCCCCC[C@H](NC(=O)[C@H](Cc1c[nH]c2ccccc12)NC(C)=O)C(=O)N[C@@H](CC(=O)O)C(=O)N[C@@H](Cc1cccc(Br)c1)C(N)=O [HT-260, Ac-D-Trp-Na-Asp-Phe(3-Br)-NH2]
EC50 [1, 5]: 0.16 µM
EC50 ([2]; in presence of 10 nM CCK8): 2.74 µM

CCCC[C@H](NC(=O)[C@@H](Cc1c(C)[nH]c2ccccc12)NC(C)=O)C(=O)N[C@@H](CCCC(=O)O)C(=O)N[C@@H](Cc1cccc(Br)c1)C(N)=O [HT-262, Ac-(2-Me-Trp)-Nle-Aa-Phe(3 Br)-NH2] (Ac-[dTrp(2-Me)][Nle][Aad][Phe(3-Br)]-NH2)
EC50 [1, 5]: 1.18 µM
EC50 [2, 6]: > 10 µM

CCCC[C@H](NC(=O)[C@@H](Cc1cn(C)c2ccccc12)NC(C)=O)C(=O)N[C@@H](CCC(=O)O)C(=O)N[C@@H](Cc1cn(C)c2ccccc12)C(N)=O [HT-245, Ac-(1-Me-Trp)-Nle-Glu-(1-Me-Trp)-NH2]
EC50 [1, 8]: > 10 µM
EC50 ([2]; in presence of 10 nM CCK8): 1.76 µM

CSCC[C@H](NC(=O)[C@@H](Cc1cc2ccccc2[nH]1)NC(=O)[C@@H](N)CCC(=O)O)C(=O)N[C@@H](CC(=O)O)C(=O)N[C@@H](Cc1cccc(Br)c1)C(N)=O [HT-255, Glu-D-Trp-Met-Asp-Phe(3-Br)-NH2]
EC50 [1, 5]: 0.000569 µM
EC50 ([2]; in presence of 10 nM CCK8): 0.0403 µM

CSCC[C@H](NC(=O)[C@@H](Cc1c[nH]c2ccccc12)NC(=O)CNC(=O)[C@H](Cc1ccc(O)cc1)NC(=O)[C@H](CC(N)=O)NC(=O)[C@H](CCCCN)NC(=O)[C@@H](NC(=O)[C@H](C)NC(=O)[C@H](CC(N)=O)NC(=O)[C@@H](NC(=O)[C@H](Cc1c[nH]cn1)NC(=O)CNC(=O)[C@H](CO)NC(=O)[C@H](CC(N)=O)NC(=O)[C@H](C)NC(=O)[C@H](Cc1ccc(O)cc1)NC(C)=O)C(C)C)C(C)C)C(=O)N[C@@H](CC(=O)O)C(=O)N[C@@H](Cc1cccc(Br)c1)C(N)=O [HT-218] (Ac-YANSGHVNAVKNYG[dW]MD[Phe(3-Br)]-NH2)
EC50 [1, 5]: 0.395 µM
EC50 ([2]; in presence of 10 nM CCK8): 0.68 µM

CCCC[C@H](NC(C)=O)C(=O)NCC(=O)N[C@@H](Cc1c[nH]c2ccccc12)C(=O)N[C@@H](CCSC)C(N)=O [HT-212, Ac-Nle-Gly-Trp-Met-NH2] (Ac-[Nle]GWM-NH2)
EC50 [1, 8]: > 10 µM
EC50 [2, 6]: > 10 µM

COC(=O)C[C@H](NC(=O)[C@H](CCSC)NC(=O)[C@H](N)Cc1c[nH]c2ccccc12)C(=O)N[C@@H](Cc1cccc(F)c1)C(N)=O [HT-78, D-Trp-Met-Asp(Ome)-Phe(3-F)-NH2]
Agonistic Activity (%) at 10 μM [1]: 20.83%
EC50 [2, 7]: ~10 µM

CSCC[C@H](NC(=O)[C@H](N)Cc1c[nH]c2ccccc12)C(=O)N[C@@H](CC(=O)O)C(=O)N[C@@H](Cc1cccc(Br)c1)C(N)=O [HT-29, D-Trp-Met-Asp-Phe(3-Br)-NH2]
EC50 [1, 3]: 0.0081 µM
Agonistic Activity (%) at 10 μM [1]: 85.68%
EC50 [2, 4]: 0.106 µM

CCCC[C@H](NC(=O)[C@H](Cc1c[nH]c2ccccc12)NC(C)=O)C(=O)N[C@@H](CCC(=O)O)C(=O)N[C@@H](Cc1c(C)[nH]c2ccccc12)C(N)=O [HT-242, Ac-D-Trp-Nle-Glu-(2-Me-Trp)-NH2]
EC50 [1, 8]: > 10 µM
EC50 ([2]; in presence of 10 nM CCK8): 1.31 µM

CSCC[C@H](NC(=O)[C@H](Cc1c[nH]c2ccccc12)NC(C)=O)C(=O)N[C@@H](CC(=O)O)C(=O)N[C@@H](CCCCN)C(N)=O [HT-194, Ac-Trp-Met-Asp-Lys-NH2] (Ac-WMDK-NH2)
EC50 ([1]; compound alone, bound in μM): > 10 µM
EC50 [2, 4]: 2.22 µM
